From PMC4451509, “9-cis-13,14-Dihydroretinoic Acid Is an Endogenous Retinoid Acting as RXR Ligand in Mice” (PLoS Genetics, 2015)

What was measured:
hRARα LBD = target: T1, hRARα LBD (Homo sapiens, UniProt P10276); test: non-denaturing ESI-MS
T1 construct: gene RARA
T1 sequence (P10276 153-421): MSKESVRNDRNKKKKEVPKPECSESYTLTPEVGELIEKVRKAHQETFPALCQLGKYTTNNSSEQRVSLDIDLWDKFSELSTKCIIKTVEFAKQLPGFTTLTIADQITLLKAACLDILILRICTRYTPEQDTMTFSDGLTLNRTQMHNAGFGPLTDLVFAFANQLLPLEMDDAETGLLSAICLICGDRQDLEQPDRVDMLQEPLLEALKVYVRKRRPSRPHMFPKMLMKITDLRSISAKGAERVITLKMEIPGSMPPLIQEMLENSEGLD

hRARβ LBD = target: T2, hRARβ LBD (Homo sapiens, UniProt P10826); test: non-denaturing ESI-MS; type: binding
T2 construct: gene RARB; LBD (169–414), N-terminal His-tag
T2 sequence (P10826 169-414): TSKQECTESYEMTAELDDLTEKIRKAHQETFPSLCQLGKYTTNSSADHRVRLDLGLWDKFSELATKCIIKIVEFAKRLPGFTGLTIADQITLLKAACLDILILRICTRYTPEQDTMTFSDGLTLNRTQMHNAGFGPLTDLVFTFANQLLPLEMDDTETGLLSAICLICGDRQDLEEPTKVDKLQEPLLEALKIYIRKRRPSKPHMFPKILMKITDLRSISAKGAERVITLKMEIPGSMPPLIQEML

Row | Compound | non-denaturing ESI-MS (hRARα LBD) | non-denaturing ESI-MS (hRARβ LBD)
1 | CC1=C(/C=C/C(C)=C\C=C\[C@H](C)CC(=O)O)C(C)(C)CCC1 [R-9CDHRA] | revealed that 9CDHRA (R and S) bind to all RAR LBD isotypes | revealed that 9CDHRA (R and S) bind to all RAR LBD isotypes
2 | CC1=C(/C=C/C(C)=C\C=C\C(C)=C\C(=O)O)C(C)(C)CCC1 [9CRA, 9-cis-retinoic acid] | percent of bound/free protein for hRAR isotypes for R- and S-9CDHRA enantiomers and 9CRA | –
3 | CC1=C(/C=C/C(C)=C\C=C\[C@@H](C)CC(=O)O)C(C)(C)CCC1 [S-9CDHRA] | revealed that 9CDHRA (R and S) bind to all RAR LBD isotypes | revealed that 9CDHRA (R and S) bind to all RAR LBD isotypes
